Experimental data from US5652262A, “Hydroxamic acid derivatives as metalloproteinase inhibitors” (British Biotech Pharmaceutical, Ltd., priority 1993, dated 1997).

Tests used:
collagenase = target: T1, collagenase (Homo sapiens, UniProt P03956); test: Inhibition of collagenase (procedure of Cawston and Barrett, acetylated 14C collagen); format: biochemical; details: 37°, 16 hours, pH 7.5
T1 sequence (P03956 100-469): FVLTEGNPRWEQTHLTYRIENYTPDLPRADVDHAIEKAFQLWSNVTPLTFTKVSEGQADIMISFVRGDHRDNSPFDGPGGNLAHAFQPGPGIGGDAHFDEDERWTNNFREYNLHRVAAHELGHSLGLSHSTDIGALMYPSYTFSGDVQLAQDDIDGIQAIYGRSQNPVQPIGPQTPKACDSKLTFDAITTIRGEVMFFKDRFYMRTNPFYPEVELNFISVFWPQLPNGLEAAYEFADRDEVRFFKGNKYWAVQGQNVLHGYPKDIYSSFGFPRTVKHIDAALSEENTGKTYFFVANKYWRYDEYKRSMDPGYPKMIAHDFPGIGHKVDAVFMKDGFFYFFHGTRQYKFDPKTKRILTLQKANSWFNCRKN
Description: The potency of compounds of the invention as inhibitors of collagenase was determined by the procedure of Cawston and Barrett, (Anal. Biochem., 99, 340-345, 1979), hereby incorporated by reference, whereby a 1 mM solution of the compound being tested, or a dilution thereof, was incubated at 37° for 16 hours with collagen and collagenase (buffered with 25 mM Hepes, pH 7.5 containing 5 mM CaCl2, 0.05% Brij 35 and 0.02% NaN3). The collagen was acetylated ^14 C collagen prepared by the method of Cawston and Murphy, (Methods in Enzymology, 80, 711, 1981), hereby incorporated by reference. The samples were centrifuged to sediment undigested collagen, and an aliquot of the radioactive supernatant removed for assay on a scintillation counter as a measure of hydrolysis.

[1] = Systemic blood concentration of inhibitor over 24 hours after oral dosing in rats, by collagenase inhibitory activity of blood extracts; format: in vivo, rat; details: 10 mg/kg in PBS/0.1% Tween 80 by gavage, male rats, 0.5-24 hours, drug plus any active metabolites, collagenase assay
Description: The biological efficacy of a compound of the invention in chronic disease states is a function of the systemic blood concentration maintained over time, and its intrinsic potency. These factors can be quantified as IC50.hrs (24 hrs), which parameter is defined as the total number of IC50 s in the blood over the 24 hours post dosing, the IC50 being defined as the concentration of the compound that reduces collagenase activity to 50% of its normal value.:
Test compounds were administered at 10 mg/kg in PBS/0.1% Tween 80 by gavage to 6 male rats (300 g) per treatment group. Blood samples were removed by tail venepuncture at 0.5, 1.0, 2.0, 6.0 and 24 hours post administration. 0.5 ml of blood was placed into 4.5 ml tubes containing 0.1 ml acid citrate dextrose (ACD) as anti-coagulant. For extraction, 3 ml methanol was added and the precipitated blood pelletted by centrifugation (30 min at 3000 rpm). A 2 ml aliquot of supernatant was removed and dried by lyophilisation. The extract was redissolved in 200 μl DMSO and a 10 μl aliquot assayed for collagenase inhibitory activity. The inhibitory activity in the extracts was determined using the collagenase assay described in Biological Example A above, and the concentration of inhibitor (that is drug plus any active metabolites) obtained by comparison with standard curves. […]

[2] = system: rat adjuvant arthritis model; test: Rat adjuvant arthritis model, hindpaw oedema volume; format: in vivo; details: male Lewis rats, two doses of 10 mg/kg orally each day, day 13 to day 17
Description: The compound of Example 1 was tested in a rat adjuvant arthritis model.
Adjuvant arthritis was produced in male Lewis rats (Charles River) by a single intradermal injection of 0.75 mg of M. butyricum in light parafin oil (Freund's complete adjuvant) into the base of the tail. The "secondary" lesion occurs after a delay of 10 days, and is characterised by inflammation of the hindpaws. Hindpaw oedema volumes were measured plethysmographically by water displacement. Animals in the treated groups received two doses of 10 mg/kg of the test compound in PBS/0.1% Tween orally, each day, from day 13 to day 17. Results are reported as paw volume change from the volume measured on day 13.

stromelysin = stromelysin (Homo sapiens, UniProt P08254); test: Inhibition of stromelysin (procedure of Cawston et al, acetylated 14C casein); format: biochemical; details: 37°, 16 hours, pH 7.5
Description: The potency of compounds of the invention as inhibitors of stromelysin was determined by the procedure of Cawston et al, (Biochem. J., 195, 159-165, 1981), hereby incorporated by reference, whereby a 1 mM solution of the compound being tested, or a dilution thereof, was incubated at 37° for 16 hours with stromelysin and ^14 C acetylate casein (buffered with 25 mM Hepes, pH 7.5 containing 5 mM CaCl2, 0.05% Brij 35 and 0.02% NaN3). The casein was acetylated ^14 C casein prepared by the method of Cawston et al (ibid).

Sequence of stromelysin (P08254 100-477): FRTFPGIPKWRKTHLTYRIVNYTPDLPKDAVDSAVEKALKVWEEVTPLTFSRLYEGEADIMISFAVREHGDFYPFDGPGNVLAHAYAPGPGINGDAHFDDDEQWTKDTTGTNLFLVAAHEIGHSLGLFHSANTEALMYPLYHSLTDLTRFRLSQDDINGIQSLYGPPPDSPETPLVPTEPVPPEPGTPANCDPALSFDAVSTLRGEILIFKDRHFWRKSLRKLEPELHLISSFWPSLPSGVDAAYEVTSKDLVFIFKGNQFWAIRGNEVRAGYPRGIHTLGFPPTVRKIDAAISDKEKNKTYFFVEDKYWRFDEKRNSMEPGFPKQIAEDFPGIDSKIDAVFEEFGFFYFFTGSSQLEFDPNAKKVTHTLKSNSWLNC

| Structure (SMILES) | IC50 (collagenase) [nM] | AUC (IC50.hrs (24hrs)) [1] [IC50.hrs] | paw volume change, Day 17 (% relative to day 13) ([2]; Day 17) [%] | paw volume change, Day 20 (% relative to day 13) ([2]; Day 20) [%] | IC50 (stromelysin) [nM] |
| --- | --- | --- | --- | --- | --- |
| C=CC[C@H](C(=O)NO)[C@@H](CC(C)C)C(=O)N[C@@H](Cc1ccccc1)C(=O)NC [Example 1, 3R-(2-Phenyl-1S-methylcarbamoyl-ethylcarbamoyl)-5-methyl-2S-2-propenyl-hexanohydroxamic acid] | 10 | 233 | 52 | 65 | – |
| C=CC[C@H](C(=O)NO)[C@@H](CC(C)C)C(=O)N[C@H](C(=O)NC)C(C)(C)C [Example 5, 3R-(2,2-Dimethyl-1S-methylcarbamoyl-propylcarbamoyl)-5-methyl-2S-2-propenyl-hexanohydroxamic acid] | 3 to 4 | 970 | – | – | 80 |
| C=CC[C@H](C(=O)NO)[C@@H](CC(C)C)C(=O)N[C@@H](Cc1ccccc1)C(=O)NCc1ccccc1 [Example 7, 3R-(2-Phenyl-1S-phenylmethylcarbamoyl-ethylcarbamoyl)-5-methyl-2S-2-propenyl-hexanohydroxamic acid] | 10 | – | – | – | 5 |
